Reference: patent publication US20140256687A1, “Agricultural and Horticultural Insecticide Composition and Method for Using the Same” (priority 2011, published 2014)

Key:
Chilo suppressalis = assay: Control effect on Chilo suppressalis (potted rice spray test); format: in vivo; settings: spray 400 L/ha, g a.i./ha: flubendiamide 30, dichlorvos 393, profenofos 500; for Percentage of control (%): control effect by formula 2; for Percentage of control (%) / Percentage of damaged stems (%): 29 days after treatment; for Number of stems at 29 days after treatment, Damaged stems / Number of stems at 29 days after treatment, Normal stems: rice (Kinmaze) in pots, 60 larvae per pot
Protocol: Rice plants (variety: Kinmaze) were planted in 2-L pots and grown to a height of about 80 cm (about 82 days after transplantation, 18 to 25 sheaths). The depth of paddy water in each pot was adjusted to 4 cm and then spray treatment to the rice plants was conducted with an agrochemical solution diluted to a predetermined concentration in an amount equivalent to 400 L/ha. After the spray-treated plants were air-dried, each pot was covered with a vinyl chloride cylindrical cover 30 cm in height. At 1 day before the treatment and at 5 and 12 days after the treatment, 20 larvae of the test insect pest Chilo suppressalis were released into each of the covered pots (60 larvae in total per pot). At 29 days after the treatment, in each pot, the number of damaged stems of the rice plants was counted, the percentage of damaged stems was calculated, and from this percentage, the control effect was calculated according to formula 2. In addition, the expected value was calculated according to Colby's equation in the same manner as in Test Example 1.
Control effect (%)=100−(the percentage of damaged stems in a treatment plot/the percentage of damaged stems in a non-treatment plot)×100 <Formula 2>

Plutella xylostella = assay: Control effect on Plutella xylostella (cabbage, greenhouse spray test); format: in vivo; settings: spray 800 L/ha, g a.i./ha: flubendiamide 60, dichlorvos 400, profenofos 320; for Number of surviving larvae 2 days after treatment / Number of surviving larvae 6 days after treatment: 3rd-instar larvae on Brassica oleracea var. capitata, three plants per plot; for Control effect (%) 2 days after treatment / Control effect (%) 6 days after treatment: formula 1

Q: With `COP(=O)(OC)OC=C(Cl)Cl` [Dichlorvos, 2,2-dichlorovinyl dimethyl phosphate] as the molecule, how does the “Percentage of control (%)” value (Chilo suppressalis) read?
A: 7.5%

Q: And the “Number of stems at 29 days after treatment, Damaged stems” value (Chilo suppressalis)?
A: 38

Q: What about the “Number of stems at 29 days after treatment, Normal stems” value (Chilo suppressalis) of the same molecule?
A: 7

Q: And the “Percentage of damaged stems (%)” value (Chilo suppressalis)?
A: 84.4%

Q: What about the “Number of surviving larvae 2 days after treatment” value (Plutella xylostella) of the same molecule?
A: 188

Q: What about the “Number of surviving larvae 6 days after treatment” value (Plutella xylostella) of the same molecule?
A: 212

Q: What about the “Control effect (%) 2 days after treatment” value (Plutella xylostella) of the same molecule?
A: 16%

Q: What about the “Control effect (%) 6 days after treatment” value (Plutella xylostella) of the same molecule?
A: 0%

Q: What does the source list for `Cc1cc(C(F)(C(F)(F)F)C(F)(F)F)ccc1NC(=O)c1cccc(I)c1C(=O)NC(C)(C)CS(C)(=O)=O` [Flubendiamide, 3-iodo-W-(2-mesyl-1,1-dimethylethyl)-N-{4-[1,2,2,2-tetrafluoro-1-(trifluoromethyl)ethyl]-o-tolyl}phthalamide]?
A: Percentage of control (%) (Chilo suppressalis): 54.0%; Number of stems at 29 days after treatment, Damaged stems (Chilo suppressalis): 21; Number of stems at 29 days after treatment, Normal stems (Chilo suppressalis): 29; Percentage of damaged stems (%) (Chilo suppressalis): 42.0%; Number of surviving larvae 2 days after treatment (Plutella xylostella): 307; Number of surviving larvae 6 days after treatment (Plutella xylostella): 56; Control effect (%) 2 days after treatment (Plutella xylostella): 39%; Control effect (%) 6 days after treatment (Plutella xylostella): 88%

Q: With `CCCSP(=O)(OCC)Oc1ccc(Br)cc1Cl` (stereo not drawn) [Profenofos, O-4-bromo-2-chlorophenyl O-ethyl S-propyl phosphorothioate] as the molecule, how does the “Percentage of control (%)” value (Chilo suppressalis) read?
A: 27.7%

Q: And the “Number of stems at 29 days after treatment, Damaged stems” value (Chilo suppressalis)?
A: 35

Q: And the “Number of stems at 29 days after treatment, Normal stems” value (Chilo suppressalis)?
A: 18

Q: And the “Percentage of damaged stems (%)” value (Chilo suppressalis)?
A: 66.0%

Q: What about the “Number of surviving larvae 2 days after treatment” value (Plutella xylostella) of the same molecule?
A: 121

Q: What about the “Number of surviving larvae 6 days after treatment” value (Plutella xylostella) of the same molecule?
A: 44

Q: And the “Control effect (%) 2 days after treatment” value (Plutella xylostella)?
A: 48%

Q: And the “Control effect (%) 6 days after treatment” value (Plutella xylostella)?
A: 80%
